Test results reported in PMC8551077, “Conditions for maintenance of hepatocyte differentiation and function in 3D cultures” (iScience, 2021).
Like-named read-outs stand apart in the source and are kept apart here.

What was measured:
[1] = system: primary human hepatocytes (PHH) spheroids; conditions: 14 days of treatment, preliminary
Experimental: To compare how the best performing media influenced the DILI response, a similar approach but in the 384-well format we performed a preliminary hepatotoxicity study (Figure S6). Five prototypic compounds from the previous study were tested in HMM, WENG, and WENG+ media. […] Hepatotoxicity was evaluated after chronic exposure to each of the five drug compounds at 1×, 5×, and 20× times their clinical Cmax concentrations for two weeks, as outlined by [Vorrink et al., (2018)].
ATP conent (expressed as relative light units; RLU) was used to measure the energy status of the PHH spheroids. The spheroids were incubated in AccuMax cell dissociation solution (Thermo Fisher Scientific) for 30 min at 37°C followed by centrifugation at 100 x g for 5 min. The CellTiter-Glo3D assay (Promega, Madison, Wisconsin) was used, with slight modifications. Briefly, the plate was first left for 30 min at room temperature for temperature equilibration. Thereafter CellTiter-Glo® 3D was added, and the plate left in room temperature for another 20 min on a horizontal plate shaker. The luminescence was measured on a Spark plate reader (TECAN). The results are presented as mean values +/- SD of eight technical replicates performed on three independent occasions.
Preliminary studies of hepatotoxicity were conducted as previously described for the 96-well format ([Vorrink et al., 2018]). Briefly, PHHs were cultured in 384-well plates in HMM, WENG or WENG+ media for 1 week to form spheroids. The compounds were dissolved in dimethyl sulfoxide (DMSO), and added to the wells at a final DMSO concentration of 0.5%. As in the Vorrink et al. study, final concentrations of 1×, 5×, and 20× times the clinical Cmax of the compounds were used The exposure medium was changed every 48–72h for the 14 days of treatment. On the last day, PHH viability was assessed by measurement of ATP content (see above) and a viability below 80% of control levels was considered hepatotoxic ([Vorrink et al., 2018]).

PHH spheroids = conditions: 96-well format, medium similar to WEHG; ref Vorrink et al., 2018; cited from earlier work
albumin = conditions: ref Davies and Anderson, 1997; U. S. Food and Drug Administration, 2019; cited from earlier work
[2] = all media (HMM, WENG, WENG+), all concentrations (1×, 5×, 20× clinical Cmax), controls gave correct results
[3] = WENG+ medium (zinc-supplemented), 1×, 5×, 20× clinical Cmax

Cn1cnc([N+](=O)[O-])c1Sc1ncnc2nc[nH]c12 [azathioprine]
Hepatotoxicity (DILI signal; viability below 80% of control levels considered hepatotoxic) [1, 2]: positive | DILI classification in the previous study (PHH spheroids): DILI-positive

CN(C)CCCN1c2ccccc2Sc2ccc(Cl)cc21 [chlorpromazine]
Hepatotoxicity (DILI signal; viability below 80% of control levels considered hepatotoxic) [1, 3]: did not show a DILI signal | DILI classification in the previous study (PHH spheroids): DILI-positive

O=C(O)Cc1ccccc1Nc1c(Cl)cccc1Cl [diclofenac]
Hepatotoxicity (DILI signal; viability below 80% of control levels considered hepatotoxic) [1, 3]: did not show a DILI signal | DILI classification in the previous study (PHH spheroids): DILI-positive

OC(Cn1cncn1)(Cn1cncn1)c1ccc(F)cc1F [fluconazole]
Hepatotoxicity (DILI signal; viability below 80% of control levels considered hepatotoxic) ([1]; HMM medium, 1×, 5×, 20× clinical Cmax): strong DILI signal | Hepatotoxicity (DILI signal; viability below 80% of control levels considered hepatotoxic) ([1]; WENG medium, 1×, 5×, 20× clinical Cmax): strong DILI signal | Hepatotoxicity (DILI signal; viability below 80% of control levels considered hepatotoxic) [1, 3]: false negative response | DILI classification in the previous study (PHH spheroids): false DILI-negative

Cc1ncc2n1-c1ccc(Cl)cc1C(c1ccccc1F)=NC2 [midazolam]
Binding to albumin (albumin): highly bound

CC(=O)CC(c1ccccc1)c1c(O)c2ccccc2oc1=O (stereo not drawn) [warfarin]
Hepatotoxicity (DILI signal; viability below 80% of control levels considered hepatotoxic) [1, 2]: negative
